Source: patent US20160030391A1, “METHODS AND COMPOSITIONS FOR IMPROVING COGNITIVE FUNCTION” (THE JOHNS HOPKINS UNIVERSITY, priority 2013, published 2016)

Key:
[1] = tested on: entorhinal cortex of aMCI subjects; assay: fMRI activity in entorhinal cortex during lure stimuli correctly identified as similar; format: in vivo, human; settings: levetiracetam 125 mg twice a day for two weeks vs placebo
Excerpt: As described above, the drug treatment period is the two weeks preceding Visit 1 or 2 (with the two week period preceding the other Visit being the placebo phase). […] Imaging data are obtained through high-resolution methods developed in the Stark laboratory. Data are collected on a Phillips 3 Tesla scanner (Eindhoven, The Netherlands) equipped with an 8-channel SENSE (Sensitivity Encoding) head coil, located at the F.M. Kirby Research Center for Functional Brain Imaging at the Kennedy Krieger Institute (Baltimore, Md.). High-resolution echo-planar images are collected using an acquisition matrix of 64×64, a repetition time of 1500 milliseconds, an echo time of 30 milliseconds, a […] of 70 degrees, a SENSE factor of 2, and an isotropic resolution of 1.5 mm×1.5 mm x 1.5 mm with no gap. Nineteen oblique slices are acquired parallel to the principal longitudinal axis of the hippocampus and covered the entire medial temporal lobe region bilaterally. […] Group data are analyzed using a two-way Analysis of Variance (ANOVA) with trial types and group as fixed factors, and subject as a random factor nested within group. […] The activity of the subject's medial temporal lobe is measured by functional MRI during the subject's participation in an explicit 3-alternative forced choice task, where participants view novel, repeated and similar (“lure”) stimuli. […]

[2] = tested on: Dentate Gyrus/CA3 region of aMCI patients; assay: fMRI activity in DG/CA3 during lure stimuli correctly identified as similar; format: in vivo, human; settings: aMCI subjects

Structure (SMILES): CC[C@@H](C(N)=O)N1CCCC1=O [levetiracetam, (2S)-2-(2-oxopyrrolidin-1-yl)butanamide]
- EC activity during memory judgments (fMRI) [1]: increases EC activity
- DG/CA3 hyperactivity (fMRI) ([2]; levetiracetam 62.5 mg BID for two weeks): does not significantly reduce
- DG/CA3 activity during successful memory judgments (fMRI) ([2]; levetiracetam 125 mg twice a day for two weeks vs placebo): reduces DG/CA3 hyper-activity
- DG/CA3 hyperactivity (fMRI) ([2]; levetiracetam 250 mg BID for two weeks): does not significantly reduce
